These results are taken from ChEMBL document CHEMBL4808180, “Identification of 2,2-Dimethylbutanoic Acid (HST5040), a Clinical Development Candidate for the Treatment of Propionic Acidemia and Methylmalonic Acidemia” (J Med Chem, 2021).

Data set [1] can be described thus: Half life in Sprague-Dawley rat at 10 mg/kg, po. The class given is ADME, organism-based. The note with it: in vivo.
The next data set addresses Cytochrome P450 3A4 (Homo sapiens, UniProt P08684). In words: Direct inhibition of CYP3A4 in human liver microsomes using testosterone as substrate. Type of data set: ADME. (In general: Liver microsomes are vesicles of endoplasmic reticulum, rich in cytochrome P450 enzymes.)
A short description of data set [2]: AUC (0 to infinity) in CD1 mouse at 300 mg/kg, iv. Also on record: route intravenous, time infinity, dose 300 mg/kg. The class given is ADME, organism-based. The note with it: in vivo.
Data set [3] is described as follows: AUC (0 to infinity) in CD1 mouse at 30 mg/kg, po. The class given is ADME, organism-based. Details: time infinity, route oral, dose 30 mg/kg. The note with it: in vivo.
The nature of data set [4]: Cmax in CD1 mouse at 100 mg/kg, po. Type of data set: ADME, organism-based. Details: route oral, dose 100 mg/kg. The note with it: in vivo.
The nature of data set [5]: Oral bioavailability in CD1 mouse at 100 mg/kg. Type of data set: ADME, organism-based. The note with it: in vivo.
Data set [6] in a line: Reduction of propionyl carnitine in human hepatocytes derived from methylmalonic acidemia patient pretreated for 30 mins followed by 13C-isoleucine addition and measured after 1 hr by MS/MS analysis. The note with it: hepatocyte. The class given is functional, cell-based.
The nature of data set [7]: Tmax in CD1 mouse at 30 mg/kg, iv. The note with it: in vivo. The class given is ADME, organism-based.
For a further data set, the target named is T1, OAT3 (Homo sapiens, UniProt Q8TCC7).
T1 sequence (Q8TCC7 whole entry): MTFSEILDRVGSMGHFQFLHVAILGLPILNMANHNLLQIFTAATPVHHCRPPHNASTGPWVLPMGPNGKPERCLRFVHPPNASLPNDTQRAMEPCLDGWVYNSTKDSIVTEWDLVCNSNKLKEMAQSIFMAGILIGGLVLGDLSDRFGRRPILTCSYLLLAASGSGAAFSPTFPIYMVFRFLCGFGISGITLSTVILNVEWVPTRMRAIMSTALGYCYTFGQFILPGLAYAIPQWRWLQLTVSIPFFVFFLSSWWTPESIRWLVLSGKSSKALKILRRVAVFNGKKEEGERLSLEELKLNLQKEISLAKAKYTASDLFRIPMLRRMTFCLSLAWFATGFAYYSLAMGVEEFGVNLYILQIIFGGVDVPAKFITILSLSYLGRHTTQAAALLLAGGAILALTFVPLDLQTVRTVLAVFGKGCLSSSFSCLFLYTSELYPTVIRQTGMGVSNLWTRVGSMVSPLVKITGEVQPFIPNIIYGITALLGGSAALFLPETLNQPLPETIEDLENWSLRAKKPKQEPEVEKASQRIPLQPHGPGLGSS
The experiment in a line: Inhibition of human OAT3 assessed as reduction in OAT3-mediated tenofovir transport at 14900 uM relative to control. The note with it: not told, probe tenofovir.

Data set [8] can be described thus: Drug metabolism in human hepatocytes assessed as beta-oxidation by measuring phase1 metabolite formation at 50 uM measured after 4 hrs. Type of data set: ADME, cell-based, Hepatocyte.
The nature of data set [9]: Oral bioavailability in Sprague-Dawley rat at 200 mg/kg. The class given is ADME, organism-based. The note with it: in vivo.
Another data set deals with T2, OATP1B1 (Homo sapiens, UniProt Q9Y6L6).
T2 sequence (Q9Y6L6 whole entry): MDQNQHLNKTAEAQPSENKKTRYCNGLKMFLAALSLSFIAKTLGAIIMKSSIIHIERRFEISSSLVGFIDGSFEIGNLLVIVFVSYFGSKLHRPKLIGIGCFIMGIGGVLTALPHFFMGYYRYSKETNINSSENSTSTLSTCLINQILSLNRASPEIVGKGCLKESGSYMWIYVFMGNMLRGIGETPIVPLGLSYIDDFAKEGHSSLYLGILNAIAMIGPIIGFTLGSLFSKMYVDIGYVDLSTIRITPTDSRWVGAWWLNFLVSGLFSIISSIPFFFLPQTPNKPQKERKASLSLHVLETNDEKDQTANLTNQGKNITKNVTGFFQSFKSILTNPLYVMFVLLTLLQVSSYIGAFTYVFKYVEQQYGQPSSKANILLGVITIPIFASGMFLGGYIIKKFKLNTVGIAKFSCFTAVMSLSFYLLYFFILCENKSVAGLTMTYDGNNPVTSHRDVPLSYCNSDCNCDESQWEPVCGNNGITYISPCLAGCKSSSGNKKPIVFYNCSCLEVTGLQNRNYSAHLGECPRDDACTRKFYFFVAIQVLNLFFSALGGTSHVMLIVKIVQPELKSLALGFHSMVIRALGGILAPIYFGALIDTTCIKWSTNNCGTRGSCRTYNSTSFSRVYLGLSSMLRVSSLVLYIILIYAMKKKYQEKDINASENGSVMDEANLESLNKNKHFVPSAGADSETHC
In words: Inhibition of human OATP1B1 assessed as reduction in OATP1B1- mediated E217betaG transport at 14900 uM relative to control. The note with it: not told, probe E217betaG.

Data set [10] can be described thus: Drug metabolism in Sprague-Dawley rat feces assessed as HST5040-glucuronide metabolite formation at 10 mg/kg administered as single dose by LC/MS analysis. The class given is ADME, organism-based. The note with it: in vivo.
A short description of data set [11]: Drug metabolism in minipig hepatocytes assessed as beta-oxidation by measuring phase1 metabolite formation at 50 uM measured after 4 hrs. Type of data set: ADME, cell-based, Sus scrofa domesticus, Hepatocyte. The note with it: pig.
Data set [12] addresses T3, Multidrug and toxin extrusion protein 1 (Homo sapiens, UniProt Q96FL8).
T3 sequence (Q96FL8 whole entry): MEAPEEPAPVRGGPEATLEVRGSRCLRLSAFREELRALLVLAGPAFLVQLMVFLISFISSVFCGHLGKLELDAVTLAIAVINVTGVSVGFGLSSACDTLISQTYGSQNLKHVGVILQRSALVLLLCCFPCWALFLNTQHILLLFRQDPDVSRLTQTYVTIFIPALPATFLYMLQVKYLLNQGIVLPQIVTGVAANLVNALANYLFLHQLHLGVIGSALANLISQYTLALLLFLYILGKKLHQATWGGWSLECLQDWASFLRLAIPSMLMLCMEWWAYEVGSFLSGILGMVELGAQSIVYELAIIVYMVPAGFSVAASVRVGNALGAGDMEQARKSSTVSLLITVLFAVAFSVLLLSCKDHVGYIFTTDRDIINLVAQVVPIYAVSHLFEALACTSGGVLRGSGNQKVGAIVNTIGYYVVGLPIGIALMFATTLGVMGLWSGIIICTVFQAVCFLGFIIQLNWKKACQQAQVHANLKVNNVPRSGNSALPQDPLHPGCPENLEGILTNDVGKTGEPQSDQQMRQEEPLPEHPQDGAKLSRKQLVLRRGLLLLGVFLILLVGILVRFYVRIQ
The experiment in a line: Inhibition of human MATE1 assessed as reduction in MATE1-mediated metformin transport at 14900 uM relative to control.

Data set [13] in a line: Reduction of propionyl-CoA in human hepatocytes derived from propionic acidemia patient pretreated for 30 mins followed by 13C-isoleucine addition and measured after 1 hr by MS/MS analysis. Type of data set: functional, cell-based. The note with it: hepatocyte.
The nature of data set [14]: Apparent permeability across apical to basal side in human MDCK2-MDR1. The note with it: dog, MDCK-MDR1. The class given is ADME, Canis lupus familiaris.
Data set [15] can be described thus: Clearance in CD1 mouse at 30 mg/kg, iv. The class given is ADME, organism-based. The note with it: in vivo.
Data set [16] is described as follows: Tmax in Gottingen minipig at 10 mg/kg, po using radiolabeled compound by quantitative whole-body autoradiography. Type of data set: ADME, organism-based, Sus scrofa domesticus. The note with it: pig, in vivo.
Data set [17] is described as follows: Reduction of CoASH in human hepatocytes derived from propionic acidemia patient pretreated for 30 mins followed by 13C-isoleucine addition and measured after 1 hr by MS/MS analysis. The class given is functional, cell-based. The note with it: hepatocyte.
The nature of data set [18]: Drug metabolism in Sprague-Dawley rat feces assessed as HST5040-glycine metabolite formation at 10 mg/kg administered as single dose by LC/MS analysis. Type of data set: ADME, organism-based. The note with it: in vivo.

As usually defined, the half-life is the time needed for the level to fall by half in the phase considered. Low values mean fast loss, high ones slow loss. In general, IC50 refers to the concentration at which inhibition is half-maximal. A low value points to inhibition by little substance. In general, AUC(0-inf) refers to the area under the concentration-time curve extrapolated to infinity. As a reminder, the Cmax is the peak of the concentration-time curve. The pEC50 is the EC50 on a negative log10 scale, so that one unit is a factor of ten. The term Tmax denotes the time at which the peak concentration occurs. As a reminder, the inhibition is the relative decrease from the control value, in per cent. For orientation: Papp A→B means how fast a substance crosses the layer from the apical side. As a reminder, the clearance is the rate of elimination divided by the concentration.

Structures are written as SMILES. pEC50: −log10 of the molar value.

Sequence of Cytochrome P450 3A4 (P08684 whole entry): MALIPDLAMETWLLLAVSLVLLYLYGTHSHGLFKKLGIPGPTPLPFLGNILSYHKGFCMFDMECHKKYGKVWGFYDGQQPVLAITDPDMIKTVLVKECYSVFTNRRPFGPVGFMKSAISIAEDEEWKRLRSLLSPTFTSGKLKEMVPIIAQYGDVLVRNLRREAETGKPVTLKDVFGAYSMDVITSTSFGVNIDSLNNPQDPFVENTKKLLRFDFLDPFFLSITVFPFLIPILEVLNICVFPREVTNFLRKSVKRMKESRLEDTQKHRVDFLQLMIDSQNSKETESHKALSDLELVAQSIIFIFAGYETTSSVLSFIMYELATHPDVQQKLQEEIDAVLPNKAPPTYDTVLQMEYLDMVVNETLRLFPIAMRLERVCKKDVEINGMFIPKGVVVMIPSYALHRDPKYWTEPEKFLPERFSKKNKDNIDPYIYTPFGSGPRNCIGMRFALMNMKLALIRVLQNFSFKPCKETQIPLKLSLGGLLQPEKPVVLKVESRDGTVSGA

For the compound `CCC(C)(C)C(=O)O` [DIMEBUTIC ACID], the half-life in data set [1] is 190 min. Further, at Cytochrome P450 3A4, the IC50 was more than 10000 µM. The AUC(0-inf) in data set [2] was found to be 1250 µg·h/mL; in data set [3], 37.5 µg·h/mL. Moreover, in data set [4], the concentration peaked (Cmax) at 118 µg/mL. For the same compound, the bioavailability in [5] stood at 93.3%; in data set [9] it was 126%. The pEC50 was 5.85 in [6], 6.03 in data set [13] and 4.94 in data set [17]. Also, the time of peak concentration (Tmax) amounted to 7.5 min in data set [7] and 30 min in [16]. Besides, the values for the inhibition at 14900 µM at OAT3 and on OATP1B1 were 90.9% and 25.9%, respectively. The Drug metabolism entry is reported as “Metabolite_Notdetected” in data set [8], “Metabolite_Detected” in [10], “Metabolite_Notdetected” in data set [11] and “Metabolite_Detected” in [18]. Moreover, in data set [12], the “inhibition (INH)” value was “Not Active”. In addition, the Papp A→B in [14] was more than 20 ×10⁻⁶ cm/s. Besides, the clearance in [15] stood at 7.28 mL/min/kg.
